Assay results as given in US7271278B2, “Application of chromium-amino acid complexes in the treatment of diabetes and other diseases” (The University of Wyoming, priority 2005, dated 2007).

Experiments:
[1] = Deoxyribose degradation assay for generation of hydroxyl radicals
Protocol: The potential of chromium compounds to generate hydroxyl radicals in vitro was assessed by the method reported previously (Halliwell et al. (1987) Anal. Biochem., 165:215-219). Briefly, a reaction mixture containing either chromium picolinate or Cr(pa)3, 2-deoxyribose (4 mM), ascorbic acid (100 μM) and hydrogen peroxide (100 μM) in potassium phosphate buffer (pH 7.4, 10 mM) was incubated at 37° C. for 30 minutes. An aliquot of the mixture was treated with 1% (w/v) thiobarbituric acid and 2.8% (w/v) trichloroacetic acid and heated at 90° C. for 10 minutes, rapidly cooled and the amount of chromogen formed in the sample was measured by its absorption at 532 nm. Ferric-EDTA (100 μM) was used as a positive control.

[2] = tested on: 3T3-adipocytes; experiment: 2-deoxy-D-[3H] glucose uptake in 3T3-L1 adipocytes; format: cell-based, mouse
Protocol: (§1) The 3T3-L1-pre-adipocytes were obtained from the American Type Culture Collection and were propagated at 37° C. in DMEM with 10% newborn calf serum plus 50 U/ml penicillin and 50 μg/ml streptomycin in an incubator under a humidified atmosphere of 5% CO2/95% air. Induction of differentiation was done one day post-confluence. Cells were maintained in differentiation medium of the following composition: DMEM, 10% FBS, […] dexamethasone, 0.5 mM 1-isobutyl-3-methylxanthine (IBMX) and ITS for three days. At day 3, the dexamethasone and IBMX were removed with ITS remaining on the cells for an additional two days. Differentiation was allowed to continue in DMEM supplemented with 10% FBS, ITS and the adipocytes were used between day 9 and 14 post-induction. Prior to the cellular assays, cells were serum starved by overnight incubation in DMEM (containing 0.2% serum).
Glucose uptake activity was analyzed by measuring the uptake of 2-deoxy-D-[^3H] glucose as described previously (Sakoda et al. (1999) Diabetes, 48:1365-1371). Briefly, confluent 3T3-L1 adipocytes grown in 6-well plates were washed twice with serum-free DMEM and incubated with 2 ml of the same medium at 37° C. for 2 hours. The cells were washed 3 times with Krebs-Ringer-HEPES (KRH) buffer and incubated with 2 ml KRH buffer at 37° C. for 30 minutes. Insulin (6 nM) and/or Cr(pa)3 (0-25 μM) were then added to adipocytes accompanying the procedure of differentiation. Glucose uptake was initiated by the addition of 0.1 ml KRH buffer and 2-deoxy-D-[^3H] glucose (0.2 μCi/ml) and 5 mM glucose as final concentrations. Glucose uptake was terminated by washing the cells three times with cold PBS. The cells were lysed overnight with 1 ml 0.5M NaOH and 0.1% SDS (w/v). The radioactivity retained by the cell lysates was determined by a scintillation counter (Beckmann LC 6000IC) and normalized to protein amount measured with a Micro BCA Protein Assay Kit (Pierce Chemical, Rockford, Ill.).

[3] = Body and organ weight of ob/ob(+/+) mice after 6-week treatment; format: in vivo, mouse
Description: (§2) All animal treatment procedures described in this example were approved by the animal Care and Use Committee at University of Wyoming (Laramie, Wyo.). Homozygous B6.V-lep ob>/J male mice purchased from the Jackson Laboratory (Bar Harbor, Me.) at age 5 weeks were divided randomly into two weight-matched groups, marked as ob/ob(+/+) control and ob/ob(+/+) treatment (n=10). Number, age and weight matched normal C57 mice were used as lean control. All of these animals were maintained on conventional laboratory diet under well-controlled conditions of temperature (22±2° C.), humidity (55±5%) and 12 hour/12 hour light-dark cycle and had ad libitum access to water and standard rodent chow. Rodent diet and tap water were consumed by mice ad libitum. Cr(pa)3 was provided in the drinking water and, on the basis of water intake, was administered to provide an intake of about 150 μg/kg/day corresponding to about 10-15 μg elemental Cr/kg/day for ob/ob(+/+) and lean treatment groups. The dosage of chromium used was based on earlier animal studies reported with chromium picolinate (Cefalu et al. (2002) J. Nutr., 132:1107-1114).
All animal treatment procedures described in this study were approved by the Animal Care and Use Committee at University of Wyoming (Laramie, Wyo.). […] Weights of body and other organs were measured with a standard laboratory scale.

[4] = In vitro lipid-peroxidation of rat brain homogenate stimulated by hydrogen peroxide and ascorbate; format: biochemical; conditions: rat-brain homogenate 10% w/v, hydrogen peroxide 1 mM, ascorbate 1 mM, 30 min; concentration-dependent
Protocol: The end product of lipid-peroxidation, namely malondialdehyde (MDA), was estimated in the liver tissue homogenates by the colorimetric kit (Bioxytech LPO-586, Portland, Oreg.) using 1,1,3,3-tetra-ethoxypropane as a standard according to the manufacturer's specifications. This assay is based on the reaction of a chromogenic reagent N-methyl-2-phenylindole with MDA at 45° C. which yields a stable chromophore with absorbance maxima at 586 nm. Ability of Cr(D-Phe)3 to inhibit in vitro lipid-peroxidation was assessed in rat-brain homogenates (10% w/v) by incubating Cr(D-Phe)3 in the presence of hydrogen peroxide (1 mM) and ascorbic acid (1 mM) for 30 min at 37° C. followed by measuring MDA as described previously (Sreejayan et al. (1994) J. Pharm. Pharmacol., 46:1013-1016).

[5] = tested on: ob/ob(+/+) mice; experiment: Plasma/serum lipids (total cholesterol, HDL) in obese mice; format: in vivo, mouse
Protocol: Specifically, mice were treated with Cr(pa)3 at 150 μg/kg/day for six weeks. Cholesterol levels were determined by using a kit from Equal Diagnostics (Exton, Pa.) following the manufacturer's protocol.
(§3) All animal treatment procedures described in this study were approved by the Animal Care and Use Committee at University of Wyoming (Laramie, Wyo.). Homozygous B6.Vlep/J male mice purchased from the Jackson Laboratory (Bar Harbor, Me.) at age 5 weeks were divided randomly into two weight-matched groups, marked as ob/ob(+/+) control and ob/ob(+/+) treatment (n=12). Number and age-matched normal C57 mice were used as lean control. All animals were maintained on conventional laboratory diet under well-controlled conditions of temperature (22±2° C.), humidity (55±5%) and 12 hours/12 hours light-dark cycle and had ad libitum access to water and standard rodent chow. Cr(D-Phe)3 was provided in the drinking water and, on the basis of water intake, was administered to provide an intake of about 150 μg/kg/day corresponding to about 10-15 μg elemental Cr/kg/day) for ob/ob(+/+) and lean treatment groups. […] The livers of these mice were frozen in liquid nitrogen immediately and stored at −80° C. until use. Blood was collected from the heart, and the serum was extracted by centrifuging the blood at 1000 g at 4° C. and stored at −80° C. Weights of body and other organs were measured with a standard laboratory scale.
Serum levels of total cholesterol, high-density-lipoprotein (HDL) and triglycerides were measured using commercial kits (from Equal Diagnostics, Exton, Pa.) and SpectraMax 340PC^384 Microplate Reader System (Molecular Device, Sunnyvale, Calif.).

[6] = tested on: Akt; experiment: Hepatic Akt and insulin receptor phosphorylation, Western blot of liver homogenates; format: in vivo, mouse; conditions: obese mice
Description: as §3
Liver tissues lysates were subjected to Western blot analysis as described hereinabove using phospho specific antibodies against Akt. Blots were then stripped and re-probed with antibodies directed against antibodies directed at the total protein.

[7] = tested on: insulin receptor beta; experiment: Insulin-stimulated IRβ tyrosine phosphorylation, Western blot of 3T3-adipocyte lysates; format: cell-based, mouse
Protocol: as §1
Cells were lysed in RIPA buffer (150 mM NaCl, 0.25% sodium desoxycholate, 1% NP-40, 1 mM EDTA and 50 mM Tris, pH 7.2) containing 2 mM sodium vanadate, 1 μM PMSF, 1 μM sodium fluoride, 1 μg/ml aprotinin, 1 μg/ml leupeptin, and 1 μM pepstatin and sonicated to reduce the sample viscosity. The lysate was centrifuged at 15000×g for 15 minutes at 4° C. and the protein concentration in the supernatant was determined by the bicinchoninic acid method. Equivalent amounts of proteins were boiled in Laemmli sample buffer. Proteins 10-20 μg were separated on 7.5-10% polyacrylamide gel, and electrophoretically transferred to a nitrocellulose membrane. The membranes were incubated for 1 hour at room temperature in blocking buffer (5% w/v non-fat dry milk in tris buffered saline containing 0.1% Tween 20). Membranes were incubated in appropriate phospho-specific primary antibody for insulin receptor beta or Akt at 1:2500 dilutions in the blocking buffer followed by incubation with horseradish peroxidase-coupled secondary antibodies with appropriate specificity. Immunoreactive bands were visualized using enhanced chemiluminescence reagents (Cell Signaling Technology, Inc, Beverly, Mass.). […]

[8] = tested on: Akt; experiment: Insulin-stimulated Akt (thr308) phosphorylation, Western blot of 3T3-adipocyte lysates; format: cell-based, mouse
Protocol: as §1
Cells were lysed in RIPA buffer (150 mM NaCl, 0.25% sodium desoxycholate, 1% NP-40, 1 mM EDTA and 50 mM Tris, pH 7.2) containing 2 mM sodium vanadate, 1 μM PMSF, 1 μM sodium fluoride, 1 μg/ml aprotinin, 1 μg/ml leupeptin, and 1 μM pepstatin and sonicated to reduce the sample viscosity. The lysate was centrifuged at 15000×g for 15 minutes at 4° C. and the protein concentration in the supernatant was determined by the bicinchoninic acid method. Equivalent amounts of proteins were boiled in Laemmli sample buffer. Proteins 10-20 μg were separated on 7.5-10% polyacrylamide gel, and electrophoretically transferred to a nitrocellulose membrane. The membranes were incubated for 1 hour at room temperature in blocking buffer (5% w/v non-fat dry milk in tris buffered saline containing 0.1% Tween 20). Membranes were incubated in appropriate phospho-specific primary antibody for insulin receptor beta or Akt at 1:2500 dilutions in the blocking buffer followed by incubation with horseradish peroxidase-coupled secondary antibodies with appropriate specificity. Immunoreactive bands were visualized using enhanced chemiluminescence reagents (Cell Signaling Technology, Inc, Beverly, Mass.). Blots were then stripped and re-probed with antibodies directed against insulin receptor β and Akt.

[9] = tested on: ob/ob(+/+) mice; experiment: Intraperitoneal glucose tolerance test (IPGTT) in ob/ob(+/+) and lean mice; format: in vivo, mouse
Description: as §2
At the end of the treatment schedule, mice were subjected to the intraperitoneal glucose tolerance test (IPGTT) as described previously (Hintz et al. (2003) Int. J. Obes. Relat. Metab. Disord., 27:1196-1203). Briefly, the mice were fasted for 12 hours and then given intraperitoneal injection of glucose (2 g/kg body weight). Glucose levels were determined in blood drops obtained by clipping the tail of the mice immediately before glucose challenge, as well as at 15, 60 and 120 minutes thereafter. Serum glucose levels were determined using ACCU-CHEK® Advantage® Glucose Analyzer (Roche Diagnostics Corporation, Ind.). Results of IPGTT are also expressed as integrated areas under the curves (AUC) over 120 minutes for glucose calculated by using the WinNonlin software (Pharsight Corporation, Mountain View, Calif.).

[10] = tested on: pUC19 DNA; experiment: Ascorbate-stimulated cleavage of pUC19 DNA; conditions: 1.2 μM, ascorbic acid, pUC19 DNA 38 μM
Protocol: DNA cleavage-stimulated by chromium compounds was assessed as described previously (Speetjens et al. (1999) Chem. Res. Toxicol., 12:483-487). All solutions were prepared using Chelex-100 treated water to remove any traces of metal ions. […] Reactions were allowed to proceed 60 minutes at room temperature followed by quenching with 2 μl of nucleic acid sample loading buffer. The mixtures were loaded directly onto a 1% agarose gel pre-stained by ethidium bromide and electrophoresed at 60 V. The gels were photographed on a UV transilluminator.

[11] = tested on: ob/ob(+/+) mice; experiment: Insulin-challenge test in ob/ob(+/+) and lean mice; format: in vivo, mouse; conditions: vs vehicle-treated group
Description: as §3, with “Blood was collected from the heart, and the serum was extracted by centrifuging the blood at 1000 g at 4° C. and stored at −80° C.” left out
At the end of the treatment schedule, mice were given intraperitoneal injections of insulin (1 U/kg body weight). Blood glucose levels were determined by the tail-clip method at different time points as described hereinabove.

[12] = tested on: ob/ob(+/+) mice; experiment: Lipid-peroxidation (malondialdehyde) and protein carbonyl in liver homogenate of treated mice; format: in vivo, mouse; conditions: obese mice, 150 μg/kg/day 6 weeks, vs untreated obese
Description: All animal treatment procedures described in this study were approved by the Animal Care and Use Committee at University of Wyoming (Laramie, Wyo.). Homozygous B6.Vlep/J male mice purchased from the Jackson Laboratory (Bar Harbor, Me.) at age 5 weeks were divided randomly into two weight-matched groups, marked as ob/ob(+/+) control and ob/ob(+/+) treatment (n=12). Number and age-matched normal C57 mice were used as lean control. All animals were maintained on conventional laboratory diet under well-controlled conditions of temperature (22±2° C.), humidity (55±5%) and 12 hours/12 hours light-dark cycle and had ad libitum access to water and standard rodent chow. […] Weights of body and other organs were measured with a standard laboratory scale.
The end product of lipid-peroxidation, namely malondialdehyde (MDA), was estimated in the liver tissue homogenates by the colorimetric kit (Bioxytech LPO-586, Portland, Oreg.) using 1,1,3,3-tetra-ethoxypropane as a standard according to the manufacturer's specifications. This assay is based on the reaction of a chromogenic reagent N-methyl-2-phenylindole with MDA at 45° C. which yields a stable chromophore with absorbance maxima at 586 nm. […]

## O=C([O-])CN(CCN(CC(=O)[O-])CC(=O)O)CC(=O)[O-].[Fe+3] [Ferric-EDTA, reference compound]
[1]; chromium picolinate 1.2 μM, Ferric-EDTA 100 μM, ascorbic acid and hydrogen peroxide 100 μM
  hydroxyl radical production over control / reagent blank: about 3.5 fold

## insulin
[2]; insulin 6 nM during differentiation
  increase in glucose uptake by adipocytes: fourfold

## N[C@H](Cc1ccccc1)C(=O)O.[Cr+3] [Cr(pa)3, chromium (III) D-phenylalanine]
[3]; ob/ob(+/+) mice treated vs untreated
  difference in body weight: no significant difference
[3]; obese mice, 150 μg/kg/day six weeks
  body-mass indices (body, heart, liver, kidney weights): did not alter
[4]
  in vitro lipid-peroxidation (malondialdehyde equivalents): inhibited
[5]; 150 μg/kg/day 6 weeks
  serum HDL-cholesterol levels: did not alter
[5]; 150 μg/kg/day 6 weeks (Example 2)
  total serum cholesterol levels: significant lowering
[5]; 150 μg/kg/day six weeks (Example 1)
  plasma cholesterol levels: significantly attenuated
[6]; oral 150 μg/kg/day 6 weeks, basal
  levels of phospho-Akt in liver homogenate: failed to significantly enhance
[6]; oral treatment
  levels of total Akt protein in liver homogenate: Neither did the treatment alter
[6]; same blots reprobed for phosphorylated insulin receptor beta
  phosphorylation of insulin-receptors in liver: no changes
[7]; 3T3-adipocytes
  protein levels of insulin receptor: does not increase
[7]; insulin 1 nM
  IRβ phosphorylation induced by submaximal insulin: not altered
[7]; pretreatment for various time or at different concentrations, insulin 10 nM 10 minutes
  insulin-stimulated IRβ tyrosine phosphorylation: not altered
[8]; Cr(pa)3 alone, absence of insulin
  phosphorylation levels of Akt: did not alter
[8]; equimolar concentrations
  stimulation of insulin-stimulated Akt phosphorylation compared to chromium picolinate: greater stimulation
[8]; insulin 10 nM, vs Cr(Pic)3, Cr(AcAc)3, Cr(Sal)3, CrCl3
  in vitro Akt phosphorylation among various chromium complexes: greatest amount
[8]; pretreatment, insulin 10 nM, concentration- and time-dependent
  insulin-stimulated Akt (thr308) phosphorylation: further increase
[9]; lean mice, treated vs untreated
  AUC of glucose, lean mice: no significant changes
[9]; ob/ob(+/+) mice, 150 μg/kg/d 6 weeks, 15 and 60 minutes, vs untreated
  serum glucose levels post-glucose-challenge: significantly lower
[9]; ob/ob(+/+) mice, 150 μg/kg/d 6 weeks, vs untreated
  integrated AUC over 120 minutes of glucose: significantly lower
[1]; 1.2 μM
  degradation of deoxyribose: failed to cause any degradation of deoxyribose
[10]
  DNA strand breaks (supercoiled to circular nicked pUC19): failed to induce any strand breaks
[2]; Cr(pa)3 5 and 25 μM, insulin 6 nM, vs insulin-stimulated untreated cells
  insulin-stimulated glucose uptake: significantly augmented
[2]; absence of insulin
  basal glucose uptake: did not have any effect
[11]
  blood glucose level after insulin-challenge, lean mice: failed to further lower the blood glucose level
[12]
  malondialdehyde (lipid-peroxidation) in liver homogenate: significantly lower
  protein carbonyl formation in liver homogenate: significantly lower
